Measurements published in patent US10071962B2, “Androgen receptor modulators and methods for their use” (British Columbia Cancer Agency Branch, priority 2014, dated 2018).

Target: T1, androgen receptor (AR) (Homo sapiens, UniProt P10275, T878A)
T1 construct: they express endogenous androgen receptor (AR) and secrete prostate-specific antigen (PSA); endogenous in cells; host or cells: LNCaP
T1 sequence (P10275 1-920 T878A): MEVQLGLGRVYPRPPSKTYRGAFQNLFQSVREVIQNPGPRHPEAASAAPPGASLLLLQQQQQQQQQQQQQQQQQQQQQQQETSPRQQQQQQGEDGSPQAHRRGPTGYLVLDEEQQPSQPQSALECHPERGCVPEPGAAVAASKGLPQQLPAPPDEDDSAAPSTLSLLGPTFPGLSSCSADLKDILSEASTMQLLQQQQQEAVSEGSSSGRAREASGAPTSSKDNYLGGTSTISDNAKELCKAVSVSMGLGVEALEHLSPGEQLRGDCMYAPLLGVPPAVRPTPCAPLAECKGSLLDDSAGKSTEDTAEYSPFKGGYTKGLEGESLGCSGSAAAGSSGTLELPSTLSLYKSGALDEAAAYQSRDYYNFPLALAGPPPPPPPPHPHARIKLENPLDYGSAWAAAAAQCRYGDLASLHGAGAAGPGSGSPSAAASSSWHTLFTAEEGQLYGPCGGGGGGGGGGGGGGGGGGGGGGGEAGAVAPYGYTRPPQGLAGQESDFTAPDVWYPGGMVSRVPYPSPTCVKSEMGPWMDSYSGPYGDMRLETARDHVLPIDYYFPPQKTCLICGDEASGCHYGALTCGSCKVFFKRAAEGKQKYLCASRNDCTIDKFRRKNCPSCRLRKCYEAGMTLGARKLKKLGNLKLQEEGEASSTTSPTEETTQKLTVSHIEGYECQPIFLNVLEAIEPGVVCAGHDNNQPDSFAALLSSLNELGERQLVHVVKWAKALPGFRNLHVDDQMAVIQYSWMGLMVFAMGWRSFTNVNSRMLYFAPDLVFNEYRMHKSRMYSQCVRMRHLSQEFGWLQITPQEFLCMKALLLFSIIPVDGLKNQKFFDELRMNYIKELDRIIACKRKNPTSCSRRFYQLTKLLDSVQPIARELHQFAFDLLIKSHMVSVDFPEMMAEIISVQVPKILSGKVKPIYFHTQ
Test: PSA (6.1 kb)-luciferase reporter assay in LNCaP cells, R1881-induced AR transcriptional activity
Type: cell-based
Settings: LNCaP cells transfected with PSA (6.1 kb)-luciferase; 1 h pre-treatment, R1881 1 nM, 48 h; various concentrations
Procedure: R1881 (a synthetic androgen) is employed since it is stable and avoids problems associated with the labile physiological ligand dihydrotestosterone (DHT).
LNCaP (2.4×10^4 cell/well) cells were seeded on 24-well plates overnight before transfection with PSA (6.1 kb)-luciferase plasmid (0.25 ug/well) in serum-free, red phenol-free media. The next day, cells were pre-treated with compounds of the invention for 1 hour before the addition of synthetic androgen, R1881 (1 nM) to transactivate androgen receptor (AR). After 48 h of incubation with R1881, the cells were harvested, and relative luciferase activity was determined as a read-out for androgen receptor (AR) transcriptional activity relative to a control. Test compounds were added to the cells at various concentrations and activity for each treatment was normalized to the predicted maximal activity induction (in the absence of test compounds, vehicle only). Transfection experiments were performed using triplicate wells.

SMILES | luciferase activity relative to the control (read-out for AR transcriptional activity)
CCC(=O)N[C@@H](CCC(Cl)(Cl)Cl)C(=O)N1C(=O)C=C(OC)[C@@H]1CCC(Cl)(Cl)Cl [Compound 1-1a] | decrease in luciferase activity relative to the control
CCC(=O)N[C@@H](CCC(Cl)(Cl)Cl)C(=O)N1C(=O)C=C(OC)[C@H]1CCC(Cl)(Cl)Cl [Compound 1-1b] | decrease in luciferase activity relative to the control
CCC(=O)N[C@H](CCC(Cl)(Cl)Cl)C(=O)N1C(=O)C=C(OC)[C@@H]1CCC(Cl)(Cl)Cl [Compound 1-1c] | decrease in luciferase activity relative to the control
CCC(=O)N[C@H](CCC(Cl)(Cl)Cl)C(=O)N1C(=O)C=C(OC)[C@H]1CCC(Cl)(Cl)Cl [Compound 1-1d] | decrease in luciferase activity relative to the control
C#CCCC(=O)N[C@H](CCC(Cl)(Cl)Cl)C(=O)N1C(=O)C=C(OC)[C@@H]1CCC(Cl)(Cl)Cl [Compound 1-2c] | decrease in luciferase activity relative to the control
C#CCCC(=O)N[C@H](CCC(Cl)(Cl)Cl)C(=O)N1C(=O)C=C(OC)[C@H]1CCC(Cl)(Cl)Cl [Compound 1-2d] | decrease in luciferase activity relative to the control
COC1=CC(=O)N(C(=O)[C@H](N)CCC(Cl)(Cl)Cl)[C@H]1CCC(Cl)(Cl)Cl [Compound 1-4c] | decrease in luciferase activity relative to the control
COC1=CC(=O)N(C(=O)[C@H](N)CCC(Cl)(Cl)Cl)[C@@H]1CCC(Cl)(Cl)Cl [Compound 1-4d] | decrease in luciferase activity relative to the control
CCS(=O)(=O)N[C@H](CCC(Cl)(Cl)Cl)C(=O)N1C(=O)C=C(OC)[C@H]1CCC(Cl)(Cl)Cl [Compound 1-6d] | decrease in luciferase activity relative to the control
CCC(=O)N[C@H](CCC(Cl)(Cl)Cl)C(=O)N1C(=O)C=C(OC)[C@@H]1CC(C)C [Compound 1-7c] | decrease in luciferase activity relative to the control
CCC(=O)N[C@H](CCC(Cl)(Cl)Cl)C(=O)N1C(=O)C=C(OC)[C@H]1CC(C)C [Compound 1-7d] | decrease in luciferase activity relative to the control
CCC(=O)N[C@H](CC(C)C)C(=O)N1C(=O)C=C(OC)[C@@H]1CCC(Cl)(Cl)Cl [Compound 1-8c] | decrease in luciferase activity relative to the control
CCC(=O)N[C@H](CC(C)C)C(=O)N1C(=O)C=C(OC)[C@H]1CCC(Cl)(Cl)Cl [Compound 1-8d] | slight increase in luciferase activity relative to the control
C#CCCC(=O)N[C@H](CCC(Cl)(Cl)Cl)C(=O)N1C(=O)C=C(OC)[C@@H]1CC(C)C [Compound 1-9c] | decrease in luciferase activity relative to the control
